What was measured:
[1] = Toxicity observations in treated tumor-bearing mice; type: in vivo; conditions: TNP-470 alone
Description: (§1) On day 0, tumor cells were implanted into the subcutaneous space on the right flank of recipient mice. On the days of treatment, CTLs (4 to 7 post-transduction) were harvested, washed, resuspended in cold PBS, and injected in a volume of 300 μl into the retro-orbital venous plexus. […] TNP-470 (TAP Holdings Inc., Deerfield, Ill.) (30 mg/kg) was injected subcutaneously (into a site remote from the tumor) every other day in 0.3 ml PBS starting with the first day of CTL therapy. Starting volumes of tumors ranged from 40 to 80 mm^3. All mice were sacrificed when control mice reached a mean tumor volume of 2,000 mm^3 or had extensive tumor ulceration.

[2] = system: CT26 murine colon adenocarcinomas; experiment: Adoptive transfer, subcutaneous CT26 tumors in BALB/c mice; type: in vivo; conditions: combination study, TNP-470 30 mg/kg s.c. every other day, daily IL-2, FIG. 5A
Description: (§2) On day 0, tumor cells were implanted into the subcutaneous space on the right flank of recipient mice. On the days of treatment, CTLs (4 to 7 post-transduction) were harvested, washed, resuspended in cold PBS, and injected in a volume of 300 μl into the retro-orbital venous plexus. […] TNP-470 (TAP Holdings Inc., Deerfield, Ill.) (30 mg/kg) was injected subcutaneously (into a site remote from the tumor) every other day in 0.3 ml PBS starting with the first day of CTL therapy. Starting volumes of tumors ranged from 40 to 80 mm^3.

T241 fibrosarcomas = experiment: Adoptive transfer, T241 tumors in C57BL/6 mice; type: in vivo; conditions: combination study, TNP-470 30 mg/kg s.c. every other day, daily IL-2, FIG. 5C
Description: as §1

B16.F10 murine melanomas = experiment: Adoptive transfer, subcutaneous B16.F10 tumors in C57BL/6 mice; type: in vivo; conditions: combination study, TNP-470 30 mg/kg s.c. every other day, daily IL-2, FIG. 5B
Description: as §2

Flk-1 = Flk-1 (Mus musculus, UniProt P35918); conditions: Millauer 1993; Quinn 1993; cited from earlier work
Flk-1, sequence (P35918 20-1345): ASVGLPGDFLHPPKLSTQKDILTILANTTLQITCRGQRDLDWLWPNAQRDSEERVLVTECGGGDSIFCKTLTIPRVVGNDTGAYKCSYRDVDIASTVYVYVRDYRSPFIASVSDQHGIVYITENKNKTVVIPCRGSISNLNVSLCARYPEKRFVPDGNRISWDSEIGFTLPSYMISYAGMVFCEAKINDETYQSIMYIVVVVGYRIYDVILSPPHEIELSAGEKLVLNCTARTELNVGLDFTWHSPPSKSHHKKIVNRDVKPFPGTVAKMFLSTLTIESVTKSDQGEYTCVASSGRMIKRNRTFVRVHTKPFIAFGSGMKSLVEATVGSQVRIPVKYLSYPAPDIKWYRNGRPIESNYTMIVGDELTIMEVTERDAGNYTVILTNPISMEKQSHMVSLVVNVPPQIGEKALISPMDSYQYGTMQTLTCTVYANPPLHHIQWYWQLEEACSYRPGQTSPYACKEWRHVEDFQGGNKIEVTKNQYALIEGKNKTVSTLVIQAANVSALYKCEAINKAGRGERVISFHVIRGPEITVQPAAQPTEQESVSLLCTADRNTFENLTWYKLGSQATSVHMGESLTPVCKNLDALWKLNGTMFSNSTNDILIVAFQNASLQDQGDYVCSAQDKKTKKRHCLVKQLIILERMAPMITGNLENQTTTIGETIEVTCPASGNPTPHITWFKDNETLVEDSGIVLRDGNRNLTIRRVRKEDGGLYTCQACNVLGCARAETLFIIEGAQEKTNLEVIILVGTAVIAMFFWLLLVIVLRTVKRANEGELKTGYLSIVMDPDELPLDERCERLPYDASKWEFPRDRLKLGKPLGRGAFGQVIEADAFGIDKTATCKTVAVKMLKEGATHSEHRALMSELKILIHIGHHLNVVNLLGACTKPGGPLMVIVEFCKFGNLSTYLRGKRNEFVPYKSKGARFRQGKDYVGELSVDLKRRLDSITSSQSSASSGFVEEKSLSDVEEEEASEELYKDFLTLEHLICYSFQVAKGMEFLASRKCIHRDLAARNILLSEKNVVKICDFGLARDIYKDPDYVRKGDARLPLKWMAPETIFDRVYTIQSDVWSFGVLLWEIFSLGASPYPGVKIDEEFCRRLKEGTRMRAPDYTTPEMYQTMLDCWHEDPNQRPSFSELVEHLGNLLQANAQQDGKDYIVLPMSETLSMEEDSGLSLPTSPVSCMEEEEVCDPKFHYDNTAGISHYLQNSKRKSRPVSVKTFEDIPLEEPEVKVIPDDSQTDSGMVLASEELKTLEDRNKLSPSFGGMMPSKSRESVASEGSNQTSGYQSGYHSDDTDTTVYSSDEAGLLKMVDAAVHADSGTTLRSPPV

human KDR-Fc (VEGFR2) = molecular target: T1, human KDR-Fc (VEGFR2) (Homo sapiens, UniProt P35968); type: binding
T1 construct: purchased R & D Systems
T1 sequence (P35968 20-764 limits assumed): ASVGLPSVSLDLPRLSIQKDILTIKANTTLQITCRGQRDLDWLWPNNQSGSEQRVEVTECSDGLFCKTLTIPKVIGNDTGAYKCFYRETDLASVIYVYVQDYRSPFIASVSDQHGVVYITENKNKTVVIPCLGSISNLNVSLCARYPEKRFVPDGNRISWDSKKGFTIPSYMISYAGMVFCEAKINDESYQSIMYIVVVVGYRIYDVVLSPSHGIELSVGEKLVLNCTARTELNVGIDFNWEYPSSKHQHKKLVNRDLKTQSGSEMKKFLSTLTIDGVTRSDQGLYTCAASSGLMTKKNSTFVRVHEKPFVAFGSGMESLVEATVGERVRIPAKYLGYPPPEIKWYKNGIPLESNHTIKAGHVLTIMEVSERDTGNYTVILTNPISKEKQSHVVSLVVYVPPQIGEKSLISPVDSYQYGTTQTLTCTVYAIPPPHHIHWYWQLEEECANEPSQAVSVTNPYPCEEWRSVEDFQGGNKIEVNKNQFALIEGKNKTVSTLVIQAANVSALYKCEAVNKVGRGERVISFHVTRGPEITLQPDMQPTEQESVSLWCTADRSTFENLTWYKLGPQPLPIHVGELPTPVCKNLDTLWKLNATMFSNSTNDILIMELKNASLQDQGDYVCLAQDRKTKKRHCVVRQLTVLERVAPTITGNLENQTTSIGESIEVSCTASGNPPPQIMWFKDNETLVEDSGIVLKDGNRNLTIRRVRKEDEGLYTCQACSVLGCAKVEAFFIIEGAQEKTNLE
Description: High-titer retrovirus encoding the gene for a soluble form of Flk-1, Flk-Fc, were used to infect 293T cells. Conditioned medium from these transduced cells was collected and subjected to Western blot analysis by using either antibody directed against Flk-1 or ^125I-labeled protein A to confirm the presence of both the Flk-1 and Fc portions of the fusion protein. For FACS analysis of HeLa-VEGF-cTcR cells, 2 ml of conditioned medium from these transduced cells or control media from untransduced 293T cells was used as the primary reagent. The cells were then washed and incubated with anti-mouse IgG2a-PE (Chemicon) and analyzed. For the VEGF-cTcR/KDR-Fc binding study, VEGF-cTcR clone 2 cells were incubated with increasing amounts of human KDR-Fc (R & D Systems), washed twice with PBS, and stained with anti-human IgG1-FITC antibody. For analysis of transduced CTLs, cells were incubated successively with anti-human c-Myc antibody, biotinylated anti-mouse IgG, and streptavidin-PE or only with anti-mouse CD8 antibody conjugated to FITC (Pharmingen).

| Compound | weight loss ([1]; 30 mg/kg s.c. every other day) | reaction at the TNP-470 injection site ([1]; occasionally) | inhibition of CT26 adenocarcinoma growth [2] [%] | inhibition of T241 fibrosarcoma growth (T241 fibrosarcomas) [%] | inhibition of B16.F10 melanoma growth (B16.F10 murine melanomas) [%] | binding affinity reported for association of native VEGF and Flk-1 (Flk-1) [nM] | inhibition of KDR-Fc binding to VEGF-cTcR clone 2 cells (human KDR-Fc (VEGFR2)) |
| --- | --- | --- | --- | --- | --- | --- | --- |
| CO[C@@H]1[C@H](OC(=O)NC(=O)CCl)CC[C@]2(CO2)[C@H]1[C@@]1(C)O[C@@H]1CC=C(C)C [TNP-470] | up to 10 % of total body weight | mild skin breakdown | 70 | 73 | 71 |  |  |
| VEGF |  |  |  |  |  | 0.1 to 0.5 | inhibited in a dose-dependent manner |

— patent publication US20060269529A1, “Modified t lymphocytes and uses therefor” (priority 2002, published 2006)
